Results on 18 compounds are retold here after patent US20140005163A1 (NOVARTIS AG, priority 2010, published 2014).

The test system of series [1] is PKB Ser473 phosphorylation in Rat1-myr-HA-p110 beta cells. Kind of series: Reverse protein array assay, PKB Ser473 phosphorylation in Rat1-myr-p110 beta cells. It counts as cell-based. The conditions noted are these: 0.5 h, pAkt Ser473, 30 minutes incubation, read-out: p-PKB IC50. In outline:
(§1)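 Lysates were arrayed at four dilutions, and phospho-PKB Ser473 was quantified by relative fluorescence signal. They came from Rat1-myr-HA-p110 alpha, beta or delta cells exposed for 30 min at 37 °C to an 8-point compound series with 0.2% DMSO constant.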

In the next series the target is T1, PI3K beta (Homo sapiens, UniProt P42338).
T1 construct: for the full-length p110-b subunit are generated and fused by overlapping PCR; p85(iSH2) fusion partner (see partner chain) (N); His tag (C); made in house; host or cells: baculovirus; Tn5 (Trichoplusia ni) or TiniPro insect cells
Kind of series: PI3K beta kinase assay (Kinase-Glo luminescence). It counts as biochemical. Put shortly:
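p110β full-length/p85 iSH2 construct (BV-949), 25 nM, with 1 μM ATP and 10 μg/mL phosphatidylinositol in 10 mM Tris pH 7.5, 3 mM MgCl2, 50 mM NaCl, 0.05% CHAPS, 1 mM DTT. 60 min at room temperature; ATP remaining read by Kinase-Glo luminescence. IC50 from 8-point four-parameter logistic fit.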

In series [2] the test system is PKB Ser473 phosphorylation in Rat1-myr-HA-p110 alpha cells. Put plainly: Reverse protein array assay, PKB Ser473 phosphorylation in Rat1-myr-p110 alpha cells. The conditions noted are these: 0.5 h, pAkt Ser473, 30 minutes compound incubation, read-out: p-PKB IC50. The series is classed as cell-based. In outline: as §1
Series [3] deals with PKB Ser473 phosphorylation in Rat1-myr-HA-p110 delta cells. Kind of series: Reverse protein array assay, PKB Ser473 phosphorylation in Rat1-myr-p110 delta cells. It counts as cell-based. The conditions noted are these: read-out: p-PKB IC50. In outline: as §1
A further series is described as follows: Solubility at pH 6.8. It counts as physicochemical. In outline:
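Solubility was measured at pH 6.8 following the cited Zhou et al. (2007) procedure.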

The mark [4] stands for this setting: pH 6.8, aqueous buffer, thermodynamic from solid, read-out: solubility.

SMILES strings stand for the structures. In brackets after ≈: the same amount, converted by molar mass. Like-named read-outs stand apart in the source and are kept apart here.

T1 sequence (P42338 with tags, fused parts or gaps limits assumed): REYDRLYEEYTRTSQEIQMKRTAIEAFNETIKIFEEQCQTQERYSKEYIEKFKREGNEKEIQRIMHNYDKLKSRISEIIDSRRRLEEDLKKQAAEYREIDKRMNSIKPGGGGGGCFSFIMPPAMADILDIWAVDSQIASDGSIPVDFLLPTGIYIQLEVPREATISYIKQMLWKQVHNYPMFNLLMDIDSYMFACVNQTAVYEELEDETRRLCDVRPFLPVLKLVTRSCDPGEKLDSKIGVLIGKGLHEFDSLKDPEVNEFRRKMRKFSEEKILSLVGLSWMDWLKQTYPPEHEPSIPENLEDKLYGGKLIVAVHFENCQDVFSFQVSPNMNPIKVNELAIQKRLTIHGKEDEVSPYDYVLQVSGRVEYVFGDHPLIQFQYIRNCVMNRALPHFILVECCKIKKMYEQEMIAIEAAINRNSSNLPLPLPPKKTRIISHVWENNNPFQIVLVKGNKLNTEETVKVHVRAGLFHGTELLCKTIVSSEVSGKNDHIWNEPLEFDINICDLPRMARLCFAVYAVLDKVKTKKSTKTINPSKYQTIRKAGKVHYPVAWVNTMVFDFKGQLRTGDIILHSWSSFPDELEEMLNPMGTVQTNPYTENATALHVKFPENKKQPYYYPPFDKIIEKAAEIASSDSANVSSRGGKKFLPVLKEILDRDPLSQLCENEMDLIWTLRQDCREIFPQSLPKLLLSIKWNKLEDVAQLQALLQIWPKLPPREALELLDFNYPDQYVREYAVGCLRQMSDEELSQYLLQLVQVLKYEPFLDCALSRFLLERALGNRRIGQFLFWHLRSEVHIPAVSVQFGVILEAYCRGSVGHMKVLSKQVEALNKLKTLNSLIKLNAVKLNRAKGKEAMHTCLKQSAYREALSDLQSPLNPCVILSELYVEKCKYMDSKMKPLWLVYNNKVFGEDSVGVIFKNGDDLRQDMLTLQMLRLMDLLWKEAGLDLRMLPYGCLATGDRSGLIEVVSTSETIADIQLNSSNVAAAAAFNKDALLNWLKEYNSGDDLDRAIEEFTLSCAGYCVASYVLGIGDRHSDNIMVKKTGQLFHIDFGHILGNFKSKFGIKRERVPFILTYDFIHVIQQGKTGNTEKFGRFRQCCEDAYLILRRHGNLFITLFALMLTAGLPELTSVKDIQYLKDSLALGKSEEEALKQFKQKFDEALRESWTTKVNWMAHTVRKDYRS

As for `Cc1nn(C)c(C)c1-n1c(=O)n(C)c2cnc3ccc(-c4cnc(N)c(F)c4)cc3c21` [Example 142.1, 8-(6-Amino-5-fluoro-pyridin-3-yl)-3-methyl-1-(1,3,5-trimethyl-1H-pyrazol-4-yl)-1,3-dihydro-imidazo[4,5-c]quinolin-2-one], the IC50 in series [1] was found to be 300 nM; at PI3K beta it was 201 nM; in series [2], 157 nM; in series [3], 306 nM. The solubility in “Solubility at pH 6.8” (setting [4]) was over 417 µg/mL.

With `CNc1ncc(-c2ccc3ncc4c(c3c2)n(-c2c(C)nn(C)c2C)c(=O)n4C)cc1Cl` [Example 146.4, 8-(5-Chloro-6-methylamino-pyridin-3-yl)-3-methyl-1-(1,3,5-trimethyl-1H-pyrazol-4-yl)-1,3-dihydro-imidazo[4,5-c]quinolin-2-one], the IC50 is 127 nM in series [1], 176 nM at PI3K beta, 70 nM in series [2] and 133 nM in series [3]. The solubility in the series “Solubility at pH 6.8” (setting [4]) is 75 µg/mL (≈ 167 µM).

On to `CNc1ncc(-c2ccc3ncc4c(c3c2)n(-c2cc(C)nn2C)c(=O)n4C)cc1Cl` [Example 146.5, 8-(5-Chloro-6-methylamino-pyridin-3-yl)-1-(2,5-dimethyl-2H-pyrazol-3-yl)-3-methyl-1,3-dihydro-imidazo[4,5-c]quinolin-2-one], for which the half-maximal inhibitory concentration (IC50) is 29 nM in series [1], 167 nM on PI3K beta, 12 nM in series [2] and 59 nM in series [3]. Also, the solubility in the series “Solubility at pH 6.8” (setting [4]) was found to be 3 µg/mL (≈ 6.91 µM).

`Cc1noc(C)c1-n1c(=O)n(C)c2cnc3ccc(-c4cnc(N)c(Cl)c4)cc3c21` [Example 148.4, 8-(6-Amino-5-chloro-pyridin-3-yl)-1-(3,5-dimethyl-isoxazol-4-yl)-3-methyl-1,3-dihydro-imidazo[4,5-c]quinolin-2-one]: the IC50 in series [1] turned out to be 207 nM; at PI3K beta it was 95 nM; in series [2], 151 nM; in series [3], 370 nM. Further, the solubility in the series “Solubility at pH 6.8” (setting [4]) is 3 µg/mL (≈ 7.13 µM).

For the compound `CNc1cc(-c2ccc3ncc4c(c3c2)n(-c2cn(C)nc2C)c(=O)n4C)cnc1F` [Example 150.2, 1-(1,3-Dimethyl-1H-pyrazol-4-yl)-8-(6-fluoro-5-methylamino-pyridin-3-yl)-3-methyl-1,3-dihydro-imidazo[4,5-c]quinolin-2-one], the IC50 in series [1] was 10 nM; on PI3K beta, 12 nM; in series [2] it was 7 nM; in series [3], 15 nM. The solubility in the series “Solubility at pH 6.8” (setting [4]) is 4 µg/mL (≈ 9.58 µM).

On to `CCNc1cc(-c2ccc3ncc4c(c3c2)n(-c2c(C)nn(C)c2C)c(=O)n4C)cnc1F` [Example 154.1, 8-(5-Ethylamino-6-fluoro-pyridin-3-yl)-3-methyl-1-(1,3,5-trimethyl-1H-pyrazol-4-yl)-1,3-dihydro-imidazo[4,5-c]quinolin-2-one], for which the IC50 in series [1] worked out at 104 nM; on PI3K beta, 98 nM; in series [2] it was 102 nM; in series [3], 141 nM. In the series “Solubility at pH 6.8” (pH 6.8), this compound displayed a solubility of 2 µg/mL (≈ 4.49 µM).

Take `Cc1ncc(-c2ccc3ncc4c(c3c2)n(-c2cn(C)nc2C)c(=O)n4C)cc1N(C)C` [Example 164, 8-(5-Dimethylamino-6-methyl-pyridin-3-yl)-1-(1,3-dimethyl-1H-pyrazol-4-yl)-3-methyl-1,3-dihydro-imidazo[4,5-c]quinolin-2-one]: the IC50 was under 5 nM in series [1], 11 nM on PI3K beta, under 5 nM in series [2] and 7 nM in series [3]. The solubility in the series “Solubility at pH 6.8” (setting [4]) amounted to 400 µg/mL (≈ 936 µM).

With `CCNc1ncc(-c2ccc3ncc4c(c3c2)n(-c2cn(C)nc2C)c(=O)n4C)cc1COCC` [Example 167, 1-(1,3-Dimethyl-1H-pyrazol-4-yl)-8-(5-ethoxymethyl-6-ethylamino-pyridin-3-yl)-3-methyl-1,3-dihydro-imidazo[4,5-c]quinolin-2-one], the IC50 in series [1] was 72 nM; at PI3K beta, 84 nM; in series [2], 35 nM; in series [3], 91 nM. For the same compound, the solubility in “Solubility at pH 6.8” (setting [4]) is 4 µg/mL (≈ 8.48 µM).

On to `CCn1cc(-n2c(=O)n(C)c3cnc4ccc(-c5cnc(N)c(COC)c5)cc4c32)c(C)n1` [Example 168.2, 8-(6-Amino-5-methoxymethyl-pyridin-3-yl)-1-(1-ethyl-3-methyl-1H-pyrazol-4-yl)-3-methyl-1,3-dihydro-imidazo[4,5-c]quinolin-2-one], for which the IC50 in series [1] is 18 nM; at PI3K beta, 68 nM; in series [2] it was 12 nM; in series [3], 19 nM. Further, the solubility in the series “Solubility at pH 6.8” (setting [4]) turned out to be 24 µg/mL (≈ 54.1 µM).

`Cc1ncc(-c2ccc3ncc4c(c3c2)n(-c2cn(C)nc2C)c(=O)n4C)cc1O` [Example 185.1, 1-(1,3-Dimethyl-1H-pyrazol-4-yl)-8-(5-hydroxy-6-methyl-pyridin-3-yl)-3-methyl-1,3-dihydro-imidazo[4,5-c]quinolin-2-one]: the IC50 in series [1] was determined as 46 nM; at PI3K beta, 9 nM; in series [2], 13 nM; in series [3], 326 nM. In “Solubility at pH 6.8” (setting [4]), the solubility is 17 µg/mL (≈ 42.5 µM).

Regarding `Cc1ncc(-c2ccc3ncc4c(c3c2)n(-c2cn(C)nc2C)c(=O)n4C)cc1OC(CF)CF` [Example 189, 1-(1,3-Dimethyl-1H-pyrazol-4-yl)-8-[5-(2-fluoro-1-fluoromethyl-ethoxy)-6-methyl-pyridin-3-yl]-3-methyl-1,3-dihydro-imidazo[4,5-c]quinolin-2-one], the 50% inhibitory concentration (IC50) in series [1] is under 5 nM; on PI3K beta, 5 nM; in series [2], under 5 nM; in series [3], 5 nM. Moreover, the solubility in “Solubility at pH 6.8” (setting [4]) was 15 µg/mL (≈ 31.3 µM).

Consider `Cc1nn(C)cc1-n1c(=O)n(C)c2cnc3ccc(-c4cnc(CO)c(OC(C)C)c4)cc3c21` [Example 190, 1-(1,3-Dimethyl-1H-pyrazol-4-yl)-8-(6-hydroxymethyl-5-isopropoxy-pyridin-3-yl)-3-methyl-1,3-dihydro-imidazo[4,5-c]quinolin-2-one], for which the IC50 in series [1] stood at 16 nM; at PI3K beta, 36 nM; in series [2], 19 nM; in series [3] it was 54 nM. Further, the solubility in “Solubility at pH 6.8” (setting [4]) was found to be 5 µg/mL (≈ 10.9 µM).

Take `COCc1ncc(-c2ccc3ncc4c(c3c2)n(-c2cn(C)nc2C)c(=O)n4C)cc1OC(C)C` [Example 191.1, 1-(1,3-Dimethyl-1H-pyrazol-4-yl)-8-(5-isopropoxy-6-methoxymethyl-pyridin-3-yl)-3-methyl-1,3-dihydro-imidazo[4,5-c]quinolin-2-one]: the IC50 in series [1] amounted to 54 nM; at PI3K beta it was 24 nM; in series [2], 14 nM; in series [3] it was 56 nM. Further, the solubility in “Solubility at pH 6.8” (setting [4]) was over 473 µg/mL.

Turning to `COc1cc(-c2ccc3ncc4c(c3c2)n(-c2cn(C)nc2C)c(=O)n4C)cnc1CO` [Example 193, 1-(1,3-Dimethyl-1H-pyrazol-4-yl)-8-(6-hydroxymethyl-5-methoxy-pyridin-3-yl)-3-methyl-1,3-dihydro-imidazo[4,5-c]quinolin-2-one], the IC50 in series [1] was 160 nM; at PI3K beta, 50 nM; in series [2], 8 nM; in series [3], 101 nM. For the same compound, the solubility in “Solubility at pH 6.8” (setting [4]) is 150 µg/mL (≈ 348 µM).

As for `COCc1ncc(-c2ccc3ncc4c(c3c2)n(-c2cn(C)nc2C)c(=O)n4C)cc1OC` [Example 195.1, 1-(1,3-Dimethyl-1H-pyrazol-4-yl)-8-(5-methoxy-6-methoxymethyl-pyridin-3-yl)-3-methyl-1,3-dihydro-imidazo[4,5-c]quinolin-2-one], the IC50 in series [1] stood at 114 nM; at PI3K beta, 72 nM; in series [2] it was 63 nM; in series [3] it was 154 nM. Besides, the solubility in “Solubility at pH 6.8” (setting [4]) worked out at 439 µg/mL (≈ 988 µM).

Regarding `COCc1ncc(-c2ccc3ncc4c(c3c2)n(-c2cn(C(C)C)nc2C)c(=O)n4C)cc1OC` [Example 195.2, 1-(1-Isopropyl-3-methyl-1H-pyrazol-4-yl)-8-(5-methoxy-6-methoxymethyl-pyridin-3-yl)-3-methyl-1,3-dihydro-imidazo[4,5-c]quinolin-2-one], the 50% inhibitory concentration (IC50) in series [1] was 189 nM; on PI3K beta it was 163 nM; in series [2] it was 48 nM; in series [3], 343 nM. Further, the solubility in the series “Solubility at pH 6.8” (setting [4]) is over 473 µg/mL.

Regarding `CCn1cc(-n2c(=O)n(C)c3cnc4ccc(-c5cnc(COC)c(OC)c5)cc4c32)c(C)n1` [Example 195.3, 1-(1-Ethyl-3-methyl-1H-pyrazol-4-yl)-8-(5-methoxy-6-methoxymethyl-pyridin-3-yl)-3-methyl-1,3-dihydro-imidazo[4,5-c]quinolin-2-one], the IC50 in series [1] was 184 nM; at PI3K beta, 161 nM; in series [2] it was 92 nM; in series [3], 255 nM. Further, the solubility in the series “Solubility at pH 6.8” (setting [4]) was over 459 µg/mL.

On to `[2H]C([2H])([2H])OCc1ncc(-c2ccc3ncc4c(c3c2)n(-c2cn(C)nc2Cl)c(=O)n4C)cc1OC` [Example 199, 1-(3-Chloro-1-methyl-1H-pyrazol-4-yl)-8-(5-methoxy-6-trideuteromethoxymethyl-pyridin-3-yl)-3-methyl-1,3-dihydro-imidazo[4,5-c]quinolin-2-one], for which the IC50 amounted to 26 nM in series [1], 27 nM on PI3K beta, 23 nM in series [2] and 29 nM in series [3]. Besides, the solubility in the series “Solubility at pH 6.8” (setting [4]) was 8 µg/mL (≈ 17.1 µM).
